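Step 1: Grow cells in 96-well plates. Step 2: Expose to compound for 48 hours at 5 concentrations. Step 3: Interpolate endpoints linearly; if unreached, use highest concentration. Definition used: TGI = concentration required for complete inhibition of growth.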
Columns and labels:
Test in all cases: NCI-60 cell line screen, 48 h
COLO 205 colon = system: COLO 205 colon
EKVX NSCLC = system: EKVX NSCLC
HCT-15 colon = system: HCT-15 colon
HOP-92 NSCLC = system: HOP-92 NSCLC
IGROV1 ovarian = system: IGROV1 ovarian
LXFL 529 NSCLC = system: LXFL 529 NSCLC
M14 melanoma = system: M14 melanoma
MOLT-4 leukemia = system: MOLT-4 leukemia
NCI-H226 lung = system: NCI-H226 lung
NCI-H23 lung = system: NCI-H23 lung
OVCAR-4 ovarian = system: OVCAR-4 ovarian
OVCAR-8 ovarian = system: OVCAR-8 ovarian
RXF 393 renal = system: RXF 393 renal
SF-268 CNS = system: SF-268 CNS
SK-MEL-28 melanoma = system: SK-MEL-28 melanoma
SK-MEL-5 melanoma = system: SK-MEL-5 melanoma
SW-620 colon = system: SW-620 colon
UACC-62 melanoma = system: UACC-62 melanoma
UO-31 renal = system: UO-31 renal
OVCAR-3 ovarian = system: OVCAR-3 ovarian

## CCCCNC(=O)/N=C/c1c(O)c2ccccc2oc1=O
COLO 205 colon
  TGI: > 100 µM
EKVX NSCLC
  TGI: > 100 µM
HCT-15 colon
  TGI: > 100 µM
HOP-92 NSCLC
  TGI: > 100 µM
IGROV1 ovarian
  TGI: > 100 µM
LXFL 529 NSCLC
  TGI: > 100 µM
M14 melanoma
  TGI: > 100 µM
MOLT-4 leukemia
  TGI: > 100 µM
NCI-H226 lung
  TGI: > 100 µM
NCI-H23 lung
  TGI: > 100 µM
OVCAR-4 ovarian
  TGI: > 100 µM
OVCAR-8 ovarian
  TGI: > 100 µM
RXF 393 renal
  TGI: 79.5 µM
SF-268 CNS
  TGI: > 100 µM
SK-MEL-28 melanoma
  TGI: > 100 µM
SK-MEL-5 melanoma
  TGI: > 100 µM
SW-620 colon
  TGI: > 100 µM
UACC-62 melanoma
  TGI: > 100 µM
UO-31 renal
  TGI: 56.3 µM

## O=C(N/N=C/c1cc(Br)cc(Br)c1[O-])c1ccccc1O.O=C(N/N=C/c1cc(Br)cc(Br)c1[O-])c1ccccc1O.[Ni+2]
COLO 205 colon
  TGI: 3.22 µM
EKVX NSCLC
  TGI: 2.97 µM
HCT-15 colon
  TGI: 1.57 µM
HOP-92 NSCLC
  TGI: 2.02 µM
IGROV1 ovarian
  TGI: 1.34 µM
M14 melanoma
  TGI: 1.47 µM
MOLT-4 leukemia
  TGI: 15.6 µM
NCI-H226 lung
  TGI: 1.56 µM
NCI-H23 lung
  TGI: 2.65 µM
OVCAR-3 ovarian
  TGI: 0.52 µM
OVCAR-4 ovarian
  TGI: 0.825 µM
OVCAR-8 ovarian
  TGI: 1.34 µM
RXF 393 renal
  TGI: 2.62 µM
SF-268 CNS
  TGI: 6.94 µM
SK-MEL-28 melanoma
  TGI: 1.96 µM
SK-MEL-5 melanoma
  TGI: 1.44 µM
SW-620 colon
  TGI: 1.94 µM
UACC-62 melanoma
  TGI: 0.661 µM
UO-31 renal
  TGI: 8.5 µM

## COc1ccc(C[C@H](N)C(=O)N2C[C@@H](CO)C[C@@H](n3ccc(=O)[nH]c3=O)C2)cc1
COLO 205 colon
  TGI: > 100 µM
EKVX NSCLC
  TGI: > 100 µM
HCT-15 colon
  TGI: > 100 µM
HOP-92 NSCLC
  TGI: > 100 µM
IGROV1 ovarian
  TGI: > 100 µM
LXFL 529 NSCLC
  TGI: > 100 µM
M14 melanoma
  TGI: > 100 µM
MOLT-4 leukemia
  TGI: > 100 µM
NCI-H226 lung
  TGI: > 100 µM
NCI-H23 lung
  TGI: > 100 µM
OVCAR-3 ovarian
  TGI: > 100 µM
OVCAR-4 ovarian
  TGI: > 100 µM
OVCAR-8 ovarian
  TGI: > 100 µM
RXF 393 renal
  TGI: > 100 µM
SF-268 CNS
  TGI: > 100 µM
SK-MEL-28 melanoma
  TGI: > 100 µM
SK-MEL-5 melanoma
  TGI: > 100 µM
SW-620 colon
  TGI: > 100 µM
UACC-62 melanoma
  TGI: > 100 µM
UO-31 renal
  TGI: > 100 µM

## COC1OC2=CCC3C(=O)NC(=O)C3C2[C@H](OCc2ccccc2)C1OCc1ccccc1 (some centres undefined)
EKVX NSCLC
  TGI: 3.39 µM
HCT-15 colon
  TGI: 3.86 µM
HOP-92 NSCLC
  TGI: 4.15 µM
IGROV1 ovarian
  TGI: 3.86 µM
LXFL 529 NSCLC
  TGI: 3.09 µM
M14 melanoma
  TGI: 3.19 µM
NCI-H23 lung
  TGI: 4.7 µM
OVCAR-3 ovarian
  TGI: 3.1 µM
OVCAR-4 ovarian
  TGI: 5.32 µM
OVCAR-8 ovarian
  TGI: 3.07 µM
RXF 393 renal
  TGI: 2.99 µM
SK-MEL-28 melanoma
  TGI: 3.3 µM
SK-MEL-5 melanoma
  TGI: 34.1 µM
SW-620 colon
  TGI: 2.95 µM
UACC-62 melanoma
  TGI: 6 µM
UO-31 renal
  TGI: 32.2 µM

From PubChem BioAssay (NCI)
